≈ marks a conversion by molar mass, not a printed value. Like-named read-outs stand apart in the source and are kept apart here. Values belong to the compound of their own block, whether it stands above or below them.
Columns and labels:
[1] = Reconstitution test in 50:50 Cremophor EL/Ethanol; type: physicochemical; details: 266 mg in 16.7 ml 50:50 Cremophor EL/Ethanol
Description: As used herein, the reconstitution time is measured in 50:50 Cremophor EL/ethanol solution at ambient temperature (e.g., 18-25° C.) The reconstitution time can be measure according to the procedure described in Example 7. For example, the reconstitution time is measured by dissolving 266 mg of compound 1 in 16.7 mL of 50:50 Cremophor EL/ethanol solution with manual shaking or mechanical shaking at a speed of 232-236 rpm.
50:50 Cremophor EL/Ethanol was prepared and filtered through a 0.45 μm filter and used for testing. 266 mg of compound 1 was weighed into a 50 mL glass vial with a rubber stopper. 16.7 ml of filtered 50:50 Cremophor EL/Ethanol solution was taken by a syringe and needle and added into the vial. The vial was shaken either manually, or on a mechanical shaker at a speed of 232-236 rpm. The reconstitution time was determined with three vials. At different time points, vials were subject to visual observation.

[2] = Solubility of Form A and Form D; type: physicochemical; details: shake time 24 hour; for solubility at 24 h: organic solvent or mixture, thermodynamic from solid
[3] = Stability study (appearance, HPLC, IR) in stability chambers; type: physicochemical; details: for % compd 1 / % compd 2: HPLC
Description: 100 mg±2% of compound 1 was weighed into each 20 mL scintillation vial. The vials were capped with appropriate caps and sealed with Parafilm to prevent moisture entrapment. Stability for the test compounds synthesized from different log was tested. Twelve vials for each lot were prepared and distributed into respective stability chambers to initiate their stability study according to the following protocol.
Stability of the test compound was determined by its appearance and by analytical methods such as HPLC and IR. The IR test was performed for all time points under the two conditions listed above using material in one vial.
Compound 1 contains trace amount of compound 2 shown below. The amounts of compound 1 and 2 present at each time point were analyzed by HPLC.

Sieve-cut test = type: physicochemical; details: 300 micron screen
Description: […] 5 g to 20 g samples were used, depending on the batch size. The mass and percentage of material collected in the receiver were measured.

[4] = test system: stage IV metastatic melanoma; details: in combination with taxol, relative to patients treated with paclitaxel alone; cited from earlier work

Re-constitution time (min) for specific sieve-cut ([1]; 500 micron sieve-cut): greater than 25 min
SMILES: CN(NC(=O)CC(=O)NN(C)C(=S)c1ccccc1)C(=S)c1ccccc1 [Crystal Habit 1, N-malonyl-bis(N′-methyl-N′-thiobenzoylhydrazide)]

Re-constitution time (min) for specific sieve-cut ([1]; 150 micron sieve-cut): less than or equal to 15 min
SMILES: CN(NC(=O)CC(=O)NN(C)C(=S)c1ccccc1)C(=S)c1ccccc1 [Crystal Habit 2, N-malonyl-bis(N′-methyl-N′-thiobenzoylhydrazide)]

solubility at 24 h ([2]; 50:50 Cremophor/ethanol, 50:50 Cremophor/EtOH, Vial1, read-out: Solubility in 50:50 Cre/EtOH, Vial1): 24400 µg/mL (≈ 60.8 mM) | solubility at 24 h ([2]; 50:50 Cremophor/ethanol, 50:50 Cremophor/EtOH, Vial2, read-out: Solubility in 50:50 Cre/EtOH, Vial2): 24300 µg/mL (≈ 60.6 mM) | solubility at 24 h ([2]; 50:50 Cremophor/ethanol, 50:50 Cremophor/EtOH, average of two vials, read-out: Solubility in 50:50 Cre/EtOH, Average): 24300 µg/mL (≈ 60.7 mM) | solubility at 24 h ([2]; ethanol, EtOH, Vial1, read-out: Solubility in EtOH, Vial1): 6280 µg/mL (≈ 15.7 mM) | solubility at 24 h ([2]; ethanol, EtOH, Vial2, read-out: Solubility in EtOH, Vial2): 6450 µg/mL (≈ 16.1 mM) | solubility at 24 h ([2]; ethanol, EtOH, average of two vials, read-out: Solubility in EtOH, Average): 6400 µg/mL (≈ 16 mM) | solubility at 24 h ([2]; ethyl acetate, EtOAc, Vial1, read-out: Solubility in EtOAc, Vial1): 4690 µg/mL (≈ 11.7 mM) | solubility at 24 h ([2]; ethyl acetate, EtOAc, Vial2, read-out: Solubility in EtOAc, Vial2): 4690 µg/mL (≈ 11.7 mM) | solubility at 24 h ([2]; ethyl acetate, EtOAc, average of two vials, read-out: Solubility in EtOAc, Average): 4700 µg/mL (≈ 11.7 mM)
SMILES: CN(NC(=O)CC(=O)NN(C)C(=S)c1ccccc1)C(=S)c1ccccc1 [Form A, N-malonyl-bis(N′-methyl-N′-thiobenzoylhydrazide)]

Solubility in 50:50 Cre/EtOH, Vial1 ([2]; 50:50 Cremophor/EtOH, Vial1): 42.69 mg/mL (≈ 107 mM) | Solubility in 50:50 Cre/EtOH, Vial2 ([2]; 50:50 Cremophor/EtOH, Vial2): 42.74 mg/mL (≈ 107 mM) | Solubility in 50:50 Cre/EtOH, Average ([2]; 50:50 Cremophor/EtOH, average of two vials): 42.7 mg/mL (≈ 107 mM) | Solubility in EtOAc, Vial1 ([2]; EtOAc, Vial1): 7.41 mg/mL (≈ 18.5 mM) | Solubility in EtOAc, Vial2 ([2]; EtOAc, Vial2): 7.50 mg/mL (≈ 18.7 mM) | Solubility in EtOAc, Average ([2]; EtOAc, average of two vials): 7.5 mg/mL (≈ 18.7 mM) | Solubility in EtOH, Vial1 ([2]; EtOH, Vial1): 9.76 mg/mL (≈ 24.4 mM) | Solubility in EtOH, Vial2 ([2]; EtOH, Vial2): 9.75 mg/mL (≈ 24.3 mM) | Solubility in EtOH, Average ([2]; EtOH, average of two vials): 9.8 mg/mL (≈ 24.5 mM)
SMILES: CN(NC(=O)CC(=O)NN(C)C(=S)c1ccccc1)C(=S)c1ccccc1 [Form D, N-malonyl-bis(N′-methyl-N′-thiobenzoylhydrazide)]

Appearance ([3]; 25° C./60% RH, 0 months): Pale-yellow | FT-IR ([3]; 25° C./60% RH, 0 months): Form D | Appearance ([3]; 25° C./60% RH, 1 month): Pale-yellow | FT-IR ([3]; 25° C./60% RH, 1 month): Form D | Appearance ([3]; 25° C./60% RH, 3 months): Pale-yellow | FT-IR ([3]; 25° C./60% RH, 3 months): Form D | Appearance ([3]; 25° C./60% RH, 6 months): Pale yellow | FT-IR ([3]; 25° C./60% RH, 6 months): Form D | Appearance ([3]; 25° C./60% RH, 9 months): Pale yellow | FT-IR ([3]; 25° C./60% RH, 9 months): Form D | Appearance ([3]; 25° C./60% RH, 12 months): Pale yellow | FT-IR ([3]; 25° C./60% RH, 12 months): Form D | Appearance ([3]; 40° C./75% RH, 0 months): Pale- | FT-IR ([3]; 40° C./75% RH, 0 months): Form D | Appearance ([3]; 40° C./75% RH, 0.5 months): Pale-yellow | FT-IR ([3]; 40° C./75% RH, 0.5 months): Form D | Appearance ([3]; 40° C./75% RH, 1 month): Pale- | FT-IR ([3]; 40° C./75% RH, 1 month): Form D | Appearance ([3]; 40° C./75% RH, 3 months): Pale-yellow | FT-IR ([3]; 40° C./75% RH, 3 months): Form D | Appearance ([3]; 40° C./75% RH, 6 months): Pale- | FT-IR ([3]; 40° C./75% RH, 6 months): Form D | % compd 1 ([3]; 25° C./60% RH, 0 months): 99.0% | % compd 2 ([3]; 25° C./60% RH, 0 months): 1.30% | % compd 1 ([3]; 25° C./60% RH, 1 month): 98.8% | % compd 2 ([3]; 25° C./60% RH, 1 month): 1.28% | % compd 1 ([3]; 25° C./60% RH, 3 months): 99.0% | % compd 2 ([3]; 25° C./60% RH, 3 months): 1.31% | % compd 1 ([3]; 25° C./60% RH, 6 months): 99.0% | % compd 2 ([3]; 25° C./60% RH, 6 months): 1.28% | % compd 1 ([3]; 25° C./60% RH, 9 months): 97.5% | % compd 2 ([3]; 25° C./60% RH, 9 months): 1.38% | % compd 1 ([3]; 25° C./60% RH, 12 months): 98.0% | % compd 2 ([3]; 25° C./60% RH, 12 months): 1.33% | % compd 1 ([3]; 40° C./75% RH, 0 months): 99.0% | % compd 2 ([3]; 40° C./75% RH, 0 months): 1.30% | % compd 1 ([3]; 40° C./75% RH, 0.5 months): 99.7% | % compd 2 ([3]; 40° C./75% RH, 0.5 months): 1.28% | % compd 1 ([3]; 40° C./75% RH, 1 month): 95.8% | % compd 2 ([3]; 40° C./75% RH, 1 month): 1.28% | % compd 1 ([3]; 40° C./75% RH, 3 months): 98.9% | % compd 2 ([3]; 40° C./75% RH, 3 months): 1.33% | % compd 1 ([3]; 40° C./75% RH, 6 months): 98.4% | % compd 2 ([3]; 40° C./75% RH, 6 months): 1.31%
SMILES: CN(NC(=O)CC(=O)NN(C)C(=S)c1ccccc1)C(=S)c1ccccc1 [Lot #1, N-malonyl-bis(N′-methyl-N′-thiobenzoylhydrazide)]

Appearance ([3]; 25° C./60% RH, 0 months): Pale-yellow | FT-IR ([3]; 25° C./60% RH, 0 months): Form D | Appearance ([3]; 25° C./60% RH, 1 month): Pale-yellow | FT-IR ([3]; 25° C./60% RH, 1 month): Form D | Appearance ([3]; 25° C./60% RH, 3 months): Pale-yellow | FT-IR ([3]; 25° C./60% RH, 3 months): Form D | Appearance ([3]; 25° C./60% RH, 6 months): Pale-yellow | FT-IR ([3]; 25° C./60% RH, 6 months): Form D | Appearance ([3]; 25° C./60% RH, 9 months): Pale-yellow | FT-IR ([3]; 25° C./60% RH, 9 months): Form D | Appearance ([3]; 25° C./60% RH, 12 months): Pale-yellow | FT-IR ([3]; 25° C./60% RH, 12 months): Form D | Appearance ([3]; 40° C./75% RH, 0 months): Pale- | FT-IR ([3]; 40° C./75% RH, 0 months): Form D | Appearance ([3]; 40° C./75% RH, 0.5 months): Pale-yellow | FT-IR ([3]; 40° C./75% RH, 0.5 months): Form D | Appearance ([3]; 40° C./75% RH, 1 month): Pale- | FT-IR ([3]; 40° C./75% RH, 1 month): Form D | Appearance ([3]; 40° C./75% RH, 3 months): Pale-yellow | FT-IR ([3]; 40° C./75% RH, 3 months): Form D | Appearance ([3]; 40° C./75% RH, 6 months): Pale- | FT-IR ([3]; 40° C./75% RH, 6 months): Form D | % compd 1 ([3]; 25° C./60% RH, 0 months): 99.7% | % compd 2 ([3]; 25° C./60% RH, 0 months): 0.15% | % compd 1 ([3]; 25° C./60% RH, 1 month): 98.6% | % compd 2 ([3]; 25° C./60% RH, 1 month): 0.14% | % compd 1 ([3]; 25° C./60% RH, 3 months): 100.2% | % compd 2 ([3]; 25° C./60% RH, 3 months): 0.15% | % compd 1 ([3]; 25° C./60% RH, 6 months): 99.6% | % compd 2 ([3]; 25° C./60% RH, 6 months): 0.13% | % compd 1 ([3]; 25° C./60% RH, 9 months): 98.9% | % compd 2 ([3]; 25° C./60% RH, 9 months): 0.13% | % compd 1 ([3]; 25° C./60% RH, 12 months): 99.7% | % compd 2 ([3]; 25° C./60% RH, 12 months): 0.13% | % compd 1 ([3]; 40° C./75% RH, 0 months): 99.7% | % compd 2 ([3]; 40° C./75% RH, 0 months): 0.15% | % compd 1 ([3]; 40° C./75% RH, 0.5 months): 99.6% | % compd 2 ([3]; 40° C./75% RH, 0.5 months): 0.14% | % compd 1 ([3]; 40° C./75% RH, 1 month): 100.3% | % compd 2 ([3]; 40° C./75% RH, 1 month): 0.16% | % compd 1 ([3]; 40° C./75% RH, 3 months): 100.2% | % compd 2 ([3]; 40° C./75% RH, 3 months): 0.19% | % compd 1 ([3]; 40° C./75% RH, 6 months): 101.7% | % compd 2 ([3]; 40° C./75% RH, 6 months): 0.18%
SMILES: CN(NC(=O)CC(=O)NN(C)C(=S)c1ccccc1)C(=S)c1ccccc1 [Lot #2, N-malonyl-bis(N′-methyl-N′-thiobenzoylhydrazide)]

% by weight that passed through a specific size screen, % (Sieve-cut test): Does not pass | Re-constitution time (min) for specific sieve-cut ([1]; 500 micron sieve-cut): >>25, 500 micron min
SMILES: CN(NC(=O)CC(=O)NN(C)C(=S)c1ccccc1)C(=S)c1ccccc1 [compound 1, N-malonyl-bis(N′-methyl-N′-thiobenzoylhydrazide)]
time to progression [4]: increase the time to progression

% by weight that passed through a specific size screen, % (Sieve-cut test): Does not pass | Re-constitution time (min) for specific sieve-cut ([1]; 500 micron sieve-cut): >>25, 500 micron min
SMILES: CN(NC(=O)CC(=O)NN(C)C(=S)c1ccccc1)C(=S)c1ccccc1 [compound 2]

Source: patent US9051250B2, “Polymorphs of N-malonyl-bis(N′-methyl-N′-thiobenzoylhydrazide)” (Synta Pharmaceuticals Corp., priority 2007, dated 2015)
